Test results as given in publication PMC12516390 (ACS Medicinal Chemistry Letters, 2025).
Where two headings read alike, the source gives them in different places.

How the values were obtained:
[1] = target: recombinant M^Pro (Severe acute respiratory syndrome coronavirus 2, UniProt P0DTD1); assay: SARS-CoV-2 Mpro screening and IC50 determination (QS1 fluorogenic substrate, Drag assay); format: biochemical; settings: for inhibition at 10 µM: read-out: M^Pro (%inh)@10μM
[2] = target: PL^Pro (Severe acute respiratory syndrome coronavirus 2, UniProt P0DTD1); assay: SARS-CoV-2 PLpro screening (Ac-LRGG-ACC substrate); format: biochemical; settings: read-out: PL^Pro (%inh)@10μM
[3] = in vitro; settings: African monkey
[4] = recombinant M^Pro, 20 μM QS1 substrate, Table 5, read-out: IC50 (μM) M^Pro
[5] = recombinant M^Pro, 20 μM QS1 (Ac-Abu-Tle-Leu-Gln-ACC) substrate, Table 1, read-out: M^Pro IC50
[6] = M^Pro IC50 (μM), recombinant M^Pro, 20 μM QS1 substrate, Table 3
[7] = recombinant M^Pro, 20 μM QS1 substrate, Table 3, read-out: M^Pro IC50

COc1ccc(-c2ccc(C(=O)N3C[C@@H]4CCC[C@@H]4[C@H]3C(=O)N[C@H](C#N)C[C@@H]3CCNC3=O)c(F)c2)cc1 [22j]
IC50 [1, 4]: 1.27 µM

CC(C)C[C@@H](NC(=O)c1ccc(-c2ccc(Cl)cc2)cc1)C(=O)N[C@H](C#N)C[C@@H]1CCNC1=O [12a]
inhibition at 10 µM [1]: > 95%
IC50 [1, 5]: 3.24 µM
inhibition at 10 µM [2]: < 50%

Cn1cc2c(-c3ccc(C(=O)N[C@@H](CC4CCCCC4)C(=O)N[C@H](C#N)C[C@@H]4CCNC4=O)cc3)cccc2n1 [12n]
inhibition at 10 µM [1]: < 95%
IC50 [1, 5]: 1.28 µM
inhibition at 10 µM [2]: < 50%

CCCC(NC(=O)c1ccc(Br)cc1)C(=O)NC(C#N)CC1CCNC1=O (stereo not drawn) [11c]
inhibition at 10 µM [1]: < 95%
inhibition at 10 µM [2]: < 50%

CC(C)C[C@H](NC(=O)c1ccc(-c2cccc3nn(C)cc23)cc1Cl)C(=O)N[C@H](C#N)C[C@@H]1CCNC1=O [18p]
CC50 [3]: > 100000 nM
IC50 [1, 6]: 0.068 µM

CC(C)C[C@H](NC(=O)c1ccc(-c2ccc3c(cnn3C)c2)cc1F)C(=O)N[C@H](C#N)C[C@@H]1CCNC1=O [18c]
CC50 [3]: > 100000 nM
IC50 [1, 6]: 0.307 µM

CC(C)C[C@@H](NC(=O)c1ccc(Br)cc1)C(=O)N[C@H](C#N)C[C@@H]1CCNC1=O [11b]
inhibition at 10 µM [1]: < 95%
inhibition at 10 µM [2]: < 50%

COc1ccc(-c2ccc(C(=O)N[C@@H](CC(C)C)C(=O)N[C@H](C#N)C[C@@H]3CCNC3=O)c(C)c2)cc1 [18k]
CC50 [3]: > 100000 nM
IC50 [1, 6]: 0.085 µM

COc1ccc(-c2ccc(C(=O)N3C[C@H]4[C@@H]([C@H]3C(=O)N[C@H](C#N)C[C@@H]3CCNC3=O)C4(C)C)cc2)cc1 [22b]
IC50 [1, 4]: 1.13 µM

CCC[C@H](NC(=O)c1ccc(-c2ccccc2OC)cc1)C(=O)N[C@H](C#N)C[C@@H]1CCNC1=O [12d]
inhibition at 10 µM [1]: < 95%
inhibition at 10 µM [2]: < 50%

N#C[C@H](C[C@@H]1CCNC1=O)NC(=O)C1(NC(=O)c2ccc(Br)cc2)CCCCC1 [11e]
inhibition at 10 µM [1]: > 95%
inhibition at 10 µM [2]: < 50%

COc1ccc(-c2ccc(C(=O)N[C@@H](CC(C)C)C(=O)N[C@H](C#N)C[C@@H]3CCNC3=O)cc2)cn1 [6k]
inhibition at 10 µM [1]: > 95%
IC50 ([1]; read-out: M^Pro IC50): > 1 µM
IC50 [1, 5]: 1.21 µM
inhibition at 10 µM [2]: < 50%

CCC[C@H](NC(=O)c1ccc(-c2ccc(OC)c(OC)c2)cc1)C(=O)N[C@H](C#N)C[C@@H]1CCNC1=O [12g]
inhibition at 10 µM [1]: > 95%
IC50 [1, 5]: 9.55 µM
inhibition at 10 µM [2]: < 50%

COc1cccc(-c2ccc(C(=O)N3C[C@H]4[C@@H]([C@H]3C(=O)N[C@H](C#N)C[C@@H]3CCNC3=O)C4(C)C)c(F)c2)c1 [22c]
IC50 [1, 4]: 0.465 µM

COc1ccc(-c2ccc(C(=O)NC3(C(=O)N[C@H](C#N)C[C@@H]4CCNC4=O)CCCCC3)cc2)cc1 [12p]
inhibition at 10 µM [1]: > 95%
inhibition at 10 µM [2]: < 50%

COc1cccc(-c2ccc(C(=O)N[C@@H](CC(C)C)C(=O)N[C@H](C#N)C[C@@H]3CCNC3=O)cc2F)c1 [18h]
IC50 [1, 7]: 0.694 µM

CC(C)C[C@H](NC(=O)c1ccc(-c2cncc(Cl)c2)cc1)C(=O)N[C@H](C#N)C[C@@H]1CCNC1=O [6h]
inhibition at 10 µM [1]: > 95%
IC50 ([1]; read-out: M^Pro IC50): > 1 µM
IC50 [1, 5]: 1.3 µM
inhibition at 10 µM [2]: < 50%

CC(C)C[C@H](NC(=O)c1ccc(-c2ccc3cnn(C)c3c2)cc1)C(=O)N[C@H](C#N)C[C@@H]1CCNC1=O [6n]
inhibition at 10 µM [1]: > 95%
IC50 [1, 5]: 0.653 µM
inhibition at 10 µM [2]: < 50%

CCC[C@H](NC(=O)c1ccc(-c2cccc(OC)c2)cc1)C(=O)N[C@H](C#N)C[C@@H]1CCNC1=O [12e]
inhibition at 10 µM [1]: > 95%
IC50 [1, 5]: 4.86 µM
inhibition at 10 µM [2]: < 50%

COc1ccc(-c2ccc(C(=O)N[C@@H](CC(C)C)C(=O)N[C@H](C#N)C[C@@H]3CCNC3=O)cc2F)cc1 [18i]
IC50 [1, 7]: 0.661 µM

COc1cccc(-c2ccc(C(=O)N[C@@H](CC(C)C)C(=O)N[C@H](C#N)C[C@@H]3CCNC3=O)c(C)c2)c1 [18j]
IC50 [1, 7]: 0.163 µM

CC(C)(C)[C@H](NC(=O)C(F)(F)F)C(=O)N1C[C@H]2[C@@H]([C@H]1C(=O)N[C@H](C#N)C[C@@H]1CCNC1=O)C2(C)C [nirmatrelvir, reference compound]
CC50 [3]: > 100000 nM

CC(C)C[C@H](NC(=O)c1ccc(-c2ccc(F)cc2)cc1)C(=O)N[C@H](C#N)C[C@@H]1CCNC1=O [6b]
activity / biochemical potency against M^Pro (in words) [1]: submicromolar
inhibition at 10 µM [1]: > 95%
IC50 [1, 5]: 0.849 µM
inhibition at 10 µM [2]: < 50%

COc1ccc(-c2ccc(C(=O)N[C@@H](CC3CCCCC3)C(=O)N[C@H](C#N)C[C@@H]3CCNC3=O)cc2)cc1OC [12m]
inhibition at 10 µM [1]: < 95%
IC50 [1, 5]: 2.11 µM
inhibition at 10 µM [2]: < 50%

CC(C)C[C@H](NC(=O)c1ccc(-c2ccc3cnn(C)c3c2)cc1Cl)C(=O)N[C@H](C#N)C[C@@H]1CCNC1=O [18q]
CC50 [3]: 77400 nM
IC50 [1, 6]: 0.053 µM

CCC[C@H](NC(=O)c1ccc(-c2ccc(OC)nc2)cc1)C(=O)N[C@H](C#N)C[C@@H]1CCNC1=O [12j]
inhibition at 10 µM [1]: < 95%
inhibition at 10 µM [2]: < 50%

CC(C)C[C@@H](NC(=O)c1ccc(-c2ccc(F)nc2)cc1)C(=O)N[C@H](C#N)C[C@@H]1CCNC1=O [12c]
inhibition at 10 µM [1]: > 95%
IC50 [1, 5]: 5.83 µM
inhibition at 10 µM [2]: < 50%

COc1ccc(-c2ccc(C(=O)N3C[C@H]4[C@@H]([C@H]3C(=O)N[C@H](C#N)C[C@@H]3CCNC3=O)C4(C)C)c(F)c2)cc1 [22d]
IC50 [1, 4]: 0.394 µM

N#CC(CC1CCNC1=O)NC(=O)C(CC1CCCCC1)NC(=O)c1ccc(Br)cc1 (stereo not drawn) [11d]
inhibition at 10 µM [1]: < 95%
inhibition at 10 µM [2]: < 50%

COc1ccc(-c2ccc(C(=O)N[C@@H](CC(C)C)C(=O)N[C@H](C#N)C[C@@H]3CCNC3=O)cc2)cc1 [6d]
inhibition at 10 µM [1]: > 95%
IC50 [1, 5]: 0.735 µM
inhibition at 10 µM [2]: < 50%

COc1ccccc1-c1ccc(C(=O)N[C@@H](CC(C)C)C(=O)N[C@H](C#N)C[C@@H]2CCNC2=O)cc1 [6g]
inhibition at 10 µM [1]: > 95%
IC50 ([1]; read-out: M^Pro IC50): > 1 µM
IC50 [1, 5]: 1.09 µM
inhibition at 10 µM [2]: < 50%

CC(C)C[C@H](NC(=O)c1ccc(-c2ccc(Cl)cc2)cc1)C(=O)N[C@H](C#N)C[C@@H]1CCNC1=O [6a]
activity / biochemical potency against M^Pro (in words) [1]: submicromolar
inhibition at 10 µM [1]: > 95%
IC50 [1, 5]: 0.724 µM
inhibition at 10 µM [2]: < 50%

COc1cccc(-c2ccc(C(=O)N3C[C@@H]4CCC[C@@H]4[C@H]3C(=O)N[C@H](C#N)C[C@@H]3CCNC3=O)c(F)c2)c1 [22i]
IC50 [1, 4]: 1.91 µM

CCC[C@H](NC(=O)c1ccc(-c2ccc(OC)cc2)cc1)C(=O)N[C@H](C#N)C[C@@H]1CCNC1=O [12f]
inhibition at 10 µM [1]: > 95%
IC50 [1, 5]: 5.48 µM
inhibition at 10 µM [2]: < 50%

CCOc1ccc(-c2ccc(C(=O)N[C@@H](CC(C)C)C(=O)N[C@H](C#N)C[C@@H]3CCNC3=O)cc2)cc1F [6m]
inhibition at 10 µM [1]: > 95%
IC50 [1, 5]: 0.731 µM
inhibition at 10 µM [2]: < 50%

COc1ccc(-c2ccc(C(=O)N[C@@H](CC(C)C)C(=O)N[C@H](C#N)C[C@@H]3CCNC3=O)c(C(F)(F)F)c2)cc1 [18m]
CC50 [3]: 70600 nM
IC50 [1, 6]: 0.096 µM

CCOc1ccc(-c2ccc(C(=O)N[C@@H](CC(C)C)C(=O)N[C@H](C#N)C[C@@H]3CCNC3=O)cc2)cc1 [6c]
inhibition at 10 µM [1]: > 95%
IC50 [1, 5]: 0.765 µM
inhibition at 10 µM [2]: < 50%

CCC[C@H](NC(=O)c1ccc(-c2cncc(Cl)c2)cc1)C(=O)N[C@H](C#N)C[C@@H]1CCNC1=O [12h]
inhibition at 10 µM [1]: > 95%
IC50 [1, 5]: 8.95 µM
inhibition at 10 µM [2]: < 50%

CC(C)C[C@H](NC(=O)c1ccc(-c2ccc3c(cnn3C)c2)cc1Cl)C(=O)N[C@H](C#N)C[C@@H]1CCNC1=O [18o]
CC50 [3]: 83500 nM
IC50 [1, 6]: 0.052 µM

COc1cccc(-c2ccc(C(=O)N3C[C@@H]4CCC[C@@H]4[C@H]3C(=O)N[C@H](C#N)C[C@@H]3CCNC3=O)cc2)c1 [22g]
IC50 [1, 4]: 2.67 µM

CCOc1cccc(-c2ccc(C(=O)N[C@@H](CC(C)C)C(=O)N[C@H](C#N)C[C@@H]3CCNC3=O)cc2)c1 [6i]
inhibition at 10 µM [1]: > 95%
IC50 [1, 5]: 0.798 µM
inhibition at 10 µM [2]: < 50%

COc1cccc(-c2cc(F)c(C(=O)N[C@@H](CC(C)C)C(=O)N[C@H](C#N)C[C@@H]3CCNC3=O)cc2F)c1 [18f]
IC50 [1, 7]: 0.245 µM

COc1cccc(-c2ccc(C(=O)N[C@@H](CC(C)C)C(=O)N[C@H](C#N)C[C@@H]3CCNC3=O)c(F)c2F)c1 [18d]
IC50 [1, 7]: 0.171 µM

COc1cccc(-c2ccc(C(=O)N3C[C@H]4[C@@H]([C@H]3C(=O)N[C@H](C#N)C[C@@H]3CCNC3=O)C4(C)C)cc2)c1 [22a]
IC50 [1, 4]: 1.02 µM

CCC[C@H](NC(=O)c1ccc(-c2cccc(OCC)c2)cc1)C(=O)N[C@H](C#N)C[C@@H]1CCNC1=O [12i]
inhibition at 10 µM [1]: > 95%
IC50 [1, 5]: 4.86 µM
inhibition at 10 µM [2]: < 50%

CC(C)C[C@@H](NC(=O)c1ccc(-c2ccc(F)cc2)cc1)C(=O)N[C@H](C#N)C[C@@H]1CCNC1=O [12b]
inhibition at 10 µM [1]: > 95%
IC50 [1, 5]: 4.03 µM
inhibition at 10 µM [2]: < 50%

COc1ccc(-c2ccc(C(=O)N3C[C@@H]4CCC[C@@H]4[C@H]3C(=O)N[C@H](C#N)C[C@@H]3CCNC3=O)cc2)cc1 [22h]
IC50 [1, 4]: 2.99 µM

COc1ccc(-c2cc(F)c(C(=O)N[C@@H](CC(C)C)C(=O)N[C@H](C#N)C[C@@H]3CCNC3=O)cc2F)cc1 [18g]
IC50 [1, 7]: 0.229 µM

COc1cccc(-c2ccc(C(=O)N[C@@H](CC(C)C)C(=O)N[C@H](C#N)C[C@@H]3CCNC3=O)c(C(F)(F)F)c2)c1 [18l]
IC50 [1, 7]: 0.115 µM

N#C[C@H](C[C@@H]1CCNC1=O)NC(=O)[C@H](CC1CCCCC1)NC(=O)c1ccc(-c2cncc(Cl)c2)cc1 [12o]
inhibition at 10 µM [1]: < 95%
IC50 [1, 5]: 2.4 µM
inhibition at 10 µM [2]: < 50%

COc1ccc(-c2ccc(C(=O)N[C@@H](CC(C)C)C(=O)N[C@H](C#N)C[C@@H]3CCNC3=O)c(F)c2F)cc1 [18e]
IC50 [1, 7]: 0.155 µM
